17 compounds from patent publication US12649733B2, “3,6-diamino-pyridazin-3-yl derivatives, pharmaceutical compositions containing them and their uses as pro-apoptotic agents” (LES LABORATOIRES SERVIER, priority 2019, dated 2026) can be followed below.

pIC50, pKi: −log10 of the molar value.

For one test, the system named is MOLT-4 cells. Kind of test: MOLT-4 cell viability, MTT assay. Format: cell-based. The note with it: Homo sapiens, MOLT-4, 48 h, 48 h exposure. In outline: (§1)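 Cells grown in RPMI 1640 with 10% heat-inactivated FBS at 37° C, 5% CO2, exposed 48 h to nine 3.16-fold serial compound dilutions in triplicate. MTT added for 4 h, SDS/HCl solubilisation overnight, absorbance at 540 nm; IC50 by four-parameter fit.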

In the next test the target is T1, Bcl-xL protein (Homo sapiens, UniProt Q07817, N197C).
T1 construct: (2-197)[N197C]; His-His (two His8 stretches joined by a Gly/Ala/Ser/Thr linker)
Kind of test: Fluorescence quenching assay (PUMA peptide displacement). Format: binding. The note with it: 1 nM protein, 400 nM peptide, 2 hours at 23° C.; KI determined from IC50. The procedure, abridged:
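Displacement of a TQ5WS-quencher-labelled PUMA peptide (400 nM) from Cy5-labelled His-tagged Bcl-xL 2-197 N197C (1 nM) raises fluorescence. An 11-point compound dilution was incubated 2 h at 23 °C in HEPES 10 mM, NaCl 150 mM, 0.05% Tween 20, pH 7.4, 5% DMSO. Fluorescence was read at Ex 620/Em 680 nm, and KI was derived from IC50.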

The subject of another test is H146 cells. In words: H146 cell viability, MTT assay. Format: cell-based. The note with it: Homo sapiens, NCI-H146, 48 h, 48 h exposure. The procedure, abridged:
as §1
(Tetrazolium dyes change colour on reduction, which living cells bring about.)

T1 sequence (Q07817 2-197 N197C): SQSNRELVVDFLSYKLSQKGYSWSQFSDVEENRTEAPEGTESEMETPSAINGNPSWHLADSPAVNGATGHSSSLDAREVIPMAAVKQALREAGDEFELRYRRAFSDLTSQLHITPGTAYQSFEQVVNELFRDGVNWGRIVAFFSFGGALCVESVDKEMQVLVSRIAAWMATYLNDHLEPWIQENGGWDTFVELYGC

The term pIC50 denotes the IC50 on a negative log10 scale, so that one unit is a factor of ten. A low value points to a high IC50. As usually defined, the pKi is −log10 of the Ki, conventionally taken in molar units. Regarding `CNCC#Cc1ccc(OCCCc2sc(N(CCCN(C)C)c3cc(C)c(Nc4nc5ccccc5s4)nn3)nc2C(=O)O)c(F)c1` [Example 200], the negative logarithm of the IC50 (pIC50) was 6.16 in the test on MOLT-4 cells and 6.94 in the test with H146 cells. For the same compound, on Bcl-xL protein, the pKi was 11.11.
For the compound `CNCC#Cc1ccc(OCCCc2sc(N(CC[N+](C)(C)C)c3cc(C)c(Nc4nc5ccccc5s4)nn3)nc2C(=O)[O-])c(F)c1` [Example 201, 2-[[6-(1,3-Benzothiazol-2-ylamino)-5-methyl-pyridazin-3-yl]-[2-(trimethylammonio)ethyl]amino]-5-[3-[2-fluoro-4-[3-(methylamino)prop-1-ynyl]phenoxy]propyl]thiazole-4-carboxylate], the negative-log IC50 (pIC50) was 6.38 in the test with MOLT-4 cells and 7.12 in the test on H146 cells. For the same compound, the pKi on Bcl-xL protein was 11.72.
For `Cc1cc(N(C)c2nc(C(=O)O)c(CCCOc3ccc(C#CCN4CCCC4)cc3F)s2)nnc1Nc1nc2ccccc2s1` [Example 203, 2-[[6-(1,3-Benzothiazol-2-ylamino)-5-methyl-pyridazin-3-yl]-methyl-amino]-5-[3-[2-fluoro-4-(3-pyrrolidin-1-ylprop-1-ynyl)phenoxy]propyl]thiazole-4-carboxylic acid], the pIC50 was 9.12 in the test on MOLT-4 cells and 8.41 in the test with H146 cells. Besides, the pKi at Bcl-xL protein was 11.66.
As for `Cc1cc(N(C)c2nc(C(=O)O)c(CCCOc3ccc(C#CCN4CCCCC4)cc3F)s2)nnc1Nc1nc2ccccc2s1` [Example 204, 2-[[6-(1,3-Benzothiazol-2-ylamino)-5-methyl-pyridazin-3-yl]-methyl-amino]-5-[3-[2-fluoro-4-[3-(1-piperidyl)prop-1-ynyl]phenoxy]propyl]thiazole-4-carboxylic acid], the pIC50 in the test on MOLT-4 cells was 9.15; in the test with H146 cells, 8.14. Besides, the negative logarithm of the Ki (pKi) on Bcl-xL protein is 11.22.
Turning to `Cc1cc(N(C)c2nc(C(=O)O)c(CCCOc3ccc(C#CC(C)N(C)C)cc3F)s2)nnc1Nc1nc2ccccc2s1` (stereo not drawn) [Example 205, 2-[[6-(1,3-Benzothiazol-2-ylamino)-5-methyl-pyridazin-3-yl]-methyl-amino]-5-[3-[4-[3-(dimethylamino)but-1-ynyl]-2-fluoro-phenoxy]propyl]thiazole-4-carboxylic acid], the pIC50 in the test with MOLT-4 cells is 9.43; with H146 cells it was at least 8.23. Further, the pKi on Bcl-xL protein was 11.64.
On the same counts, the results for `CNCC#Cc1ccc(OCCCc2sc(N(CCN(C)C)c3cc(C)c(Nc4nc5ccccc5s4)nn3)nc2C(=O)O)c(F)c1` [Example 207, 2-[[6-(1,3-Benzothiazol-2-ylamino)-5-methyl-pyridazin-3-yl]-[2-(dimethylamino)ethyl]amino]-5-[3-[2-fluoro-4-[3-(methylamino)prop-1-ynyl]phenoxy]propyl]thiazole-4-carboxylic acid] are 5.48, 5.97 and 11.43.
Taken in the same sequence, the figures for `Cc1cc(N(CCCC(O)C[N+](C)(C)C)c2nc(C(=O)[O-])c(CCCOc3ccc(C#CCN(C)C)cc3F)s2)nnc1Nc1nc2ccccc2s1` (stereo not drawn) [Example 211, 2-[[6-(1,3-Benzothiazol-2-ylamino)-5-methyl-pyridazin-3-yl]-[4-hydroxy-5-(trimethylammonio)pentyl]amino]-5-[3-[4-[3-(dimethylamino)prop-1-ynyl]-2-fluoro-phenoxy]propyl]thiazole-4-carboxylate] were 6.32, 7.18 and 11.19.
As to `CNCC#Cc1ccc(OCCCc2sc(N(CCCCC[N+](C)(C)CCCS(=O)(=O)[O-])c3cc(C)c(Nc4nc5ccccc5s4)nn3)nc2C(=O)O)c(F)c1` [Example 212, 3-[5-[[6-(1,3-Benzothiazol-2-ylamino)-5-methyl-pyridazin-3-yl]-[4-carboxy-5-[3-[2-fluoro-4-[3-(methylamino)prop-1-ynyl]phenoxy]propyl]thiazol-2-yl]amino]pentyl-dimethyl-ammonio]propane-1-sulfonate], the values for the pIC50 in the test on MOLT-4 cells and with H146 cells were 5.54 and 5.49, respectively. For the same compound, the pKi at Bcl-xL protein is 12.00.
Consider `CNCC#Cc1ccc(OCCCc2sc(N(CCCCCN(C)C)c3cc(C)c(Nc4nc5ccccc5s4)nn3)nc2C(=O)O)c(F)c1` [Example 213, 2-[[6-(1,3-Benzothiazol-2-ylamino)-5-methyl-pyridazin-3-yl]-[5-(dimethylamino)pentyl]amino]-5-[3-[2-fluoro-4-[3-(methylamino)prop-1-ynyl]phenoxy]propyl]thiazole-4-carboxylic acid], for which the pIC50 in the test with MOLT-4 cells is 7.03; with H146 cells, 7.14. Besides, the negative logarithm of the Ki (pKi) on Bcl-xL protein is 11.82.
With `Cc1cc(N(C)c2nc(C(=O)O)c(CCCOc3ccc(CCCN(C)C)cc3F)s2)nnc1Nc1nc2ccccc2s1` [Example 214, 2-[[6-(1,3-Benzothiazol-2-ylamino)-5-methyl-pyridazin-3-yl]-methyl-amino]-5-[3-[4-[3-(dimethylamino)propyl]-2-fluoro-phenoxy]propyl]thiazole-4-carboxylic acid], the pIC50 with MOLT-4 cells is 7.65; in the test with H146 cells it was 7.57. Further, the negative-log Ki (pKi) on Bcl-xL protein is 11.40.
For the compound `Cc1cc(N(CCCC(O)C[N+]23CCC(CC2)CC3)c2nc(C(=O)[O-])c(CCCOc3ccc(C#CCN(C)C)cc3F)s2)nnc1Nc1nc2ccccc2s1` (stereo not drawn) [Example 215, 2-[[6-(1,3-Benzothiazol-2-ylamino)-5-methyl-pyridazin-3-yl]-(4-hydroxy-5-quinuclidin-1-ium-1-yl-pentyl)amino]-5-[3-[4-[3-(dimethylamino)prop-1-ynyl]-2-fluoro-phenoxy]propyl]thiazole-4-carboxylate], the pIC50 in the test with MOLT-4 cells was 6.39; with H146 cells, 6.76. Further, at Bcl-xL protein, the pKi was 11.51.
`Cc1cc(N(CCCC(O)C[N+]23CCN(CC2)CC3)c2nc(C(=O)[O-])c(CCCOc3ccc(C#CCN(C)C)cc3F)s2)nnc1Nc1nc2ccccc2s1` (stereo not drawn) [Example 216, 2-[[5-(1-aza-4-azoniabicyclo[2.2.2]octan-4-yl)-4-hydroxy-pentyl]-[6-(1,3-benzothiazol-2-ylamino)-5-methyl-pyridazin-3-yl]amino]-5-[3-[4-[3-(dimethylamino)prop-1-ynyl]-2-fluoro-phenoxy]propyl]thiazole-4-carboxylate]: the figures for the pIC50 in the test with MOLT-4 cells and with H146 cells were 6.84 and 6.65, respectively. For the same compound, the pKi on Bcl-xL protein was 11.40.
Taken in the same sequence, the figures for `Cc1cc(N(CCCC(O)C[N+]2(C)CCOCC2)c2nc(C(=O)[O-])c(CCCOc3ccc(C#CCN(C)C)cc3F)s2)nnc1Nc1nc2ccccc2s1` (stereo not drawn) [Example 217, 2-[[6-(1,3-Benzothiazol-2-ylamino)-5-methyl-pyridazin-3-yl]-[4-hydroxy-5-(4-methylmorpholin-4-ium-4-yl)pentyl]amino]-5-[3-[4-[3-(dimethylamino)prop-1-ynyl]-2-fluoro-phenoxy]propyl]thiazole-4-carboxylate] were 6.74, 7.06 and 11.39.
Taken in the same sequence, the figures for `Cc1cc(N(C)c2nc(C(=O)O)c(CCCOc3ccc(C#CCNCC[N+](C)(C)CCCS(=O)(=O)[O-])cc3F)s2)nnc1Nc1nc2ccccc2s1` [Example 218, 3-[2-[3-[4-[3-[2-[[6-(1,3-Benzothiazol-2-ylamino)-5-methyl-pyridazin-3-yl]-methyl-amino]-4-carboxy-thiazol-5-yl]propoxy]-3-fluoro-phenyl]prop-2-ynylamino]ethyl-dimethyl-ammonio]propane-1-sulfonate] were 6.57, 6.05 and 11.92.
As to `Cc1cc(N(CCCC(O)C[N+]2(C)CCCCC2)c2nc(C(=O)[O-])c(CCCOc3ccc(C#CCN(C)C)cc3F)s2)nnc1Nc1nc2ccccc2s1` (stereo not drawn) [Example 220, 2-[[6-(1,3-Benzothiazol-2-ylamino)-5-methyl-pyridazin-3-yl]-[4-hydroxy-5-(1-methylpiperidin-1-ium-1-yl)pentyl]amino]-5-[3-[4-[3-(dimethylamino)prop-1-ynyl]-2-fluoro-phenoxy]propyl]thiazole-4-carboxylate], the negative-log IC50 (pIC50) with MOLT-4 cells was 6.01; in the test with H146 cells it was 6.66. On Bcl-xL protein, the negative-log Ki (pKi) is 11.46.
Regarding `Cc1cc(N(CCCC(O)C[N+]2(C)CCN(C)CC2)c2nc(C(=O)[O-])c(CCCOc3ccc(C#CCN(C)C)cc3F)s2)nnc1Nc1nc2ccccc2s1` (stereo not drawn) [Example 221, 2-[[6-(1,3-Benzothiazol-2-ylamino)-5-methyl-pyridazin-3-yl]-[5-(1,4-dimethylpiperazin-1-ium-1-yl)-4-hydroxy-pentyl]amino]-5-[3-[4-[3-(dimethylamino)prop-1-ynyl]-2-fluoro-phenoxy]propyl]thiazole-4-carboxylate], the pIC50 was 7.53 in the test with MOLT-4 cells and 7.03 in the test with H146 cells. The negative logarithm of the Ki (pKi) at Bcl-xL protein was 11.77.
For `Cc1cc(N(C)c2nc(C(=O)[O-])c(CCCOc3ccc(C#CCNCC[N+](C)(C)C)cc3F)s2)nnc1Nc1nc2ccccc2s1` [Example 222, 2-[3-[4-[3-[2-[[6-(1,3-Benzothiazol-2-ylamino)-5-methyl-pyridazin-3-yl]-methyl-amino]-4-carboxy-thiazol-5-yl]propoxy]-3-fluoro-phenyl]prop-2-ynylamino]ethyl-trimethyl-ammonium], the negative-log IC50 (pIC50) in the test with MOLT-4 cells was 7.21; in the test on H146 cells, 7.49. The pKi on Bcl-xL protein is 11.85.
